From patent publication US20230234942A1, “COMPOUNDS FOR TREATING HUNTINGTON'S DISEASE” (PTC Therapeutics, Inc., priority 2020, published 2023)

Test system: Endogenous Huntingtin Protein
Assay: Endogenous Huntingtin Protein Assay (ELISA-based MSD electrochemiluminescence)
Type: cell-based
Settings: Table 2; MSD plates coated with MW1 (expanded polyglutamine) or MAB2166 capture antibody; "inactive" = result above the detection limit of the assay
Method in brief: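 MSD electrochemiluminescence sandwich ELISA: capture with MW1 (expanded polyQ) or MAB2166 at 1 µg/mL, samples incubated overnight at 4 °C. Detection by rabbit mAb #56565 then SULFO-TAG anti-rabbit antibody, each 0.25 µg/mL for 1 h at room temperature, read in buffer T on SI 6000 imager.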

SMILES | IC50 [nM]
CC(C)CC1CN(c2ncc(-c3ccc(-c4cn[nH]c4)cc3O)nn2)CCN1 (centres unmarked) [Cpd 46, 2-{3-[3-(2-methylpropyl)piperazin-1-yl]-1,2,4-triazin-6-yl}-5-(1H-pyrazol-4-yl)phenol] | 150
CCC1CN(c2ncc(-c3ccc(-c4cc(F)c5nn(C)cc5c4)cc3O)nn2)CCN1 (centres unmarked) [Cpd 74, 2-[3-(3-ethylpiperazin-1-yl)-1,2,4-triazin-6-yl]-5-(7-fluoro-2-methyl-2H-indazol-5-yl)phenol] | 4.3
CC(C)[C@H]1CN(c2ncc(-c3ccc(-c4cnc5nn(C)nc5c4)cc3O)nn2)CCN1 [Cpd 212, 5-(2-methyl-2H-[1,2,3]triazolo[4,5-b]pyridin-6-yl)-2-{3-[(3S)-3-(propan-2-yl)piperazin-1-yl]-1,2,4-triazin-6-yl}phenol] | 3.3
CC(C)[C@H]1CN(c2ncc(-c3ccc(-c4nnc(C(F)F)s4)cc3O)nn2)CCN1 [Cpd 205, 5-[5-(difluoromethyl)-1,3,4-thiadiazol-2-yl]-2-{3-[(3S)-3-(propan-2-yl)piperazin-1-yl]-1,2,4-triazin-6-yl}phenol] | 904
Cn1nnc2ncc(-c3ccc(-c4cnc(N5CCN[C@@H](C6CC6)C5)nn4)c(O)c3)cc21 [Cpd 169, 2-{3-[(3S)-3-cyclopropylpiperazin-1-yl]-1,2,4-triazin-6-yl}-5-(1-methyl-1H-[1,2,3]triazolo[4,5-b]pyridin-6-yl)phenol] | 355
Oc1cc(-c2cn[nH]c2)ccc1-c1cnc(N2CCN3C[C@H](O)C[C@H]3C2)nn1 [Cpd 59, (7R,8aS)-2-{6-[2-hydroxy-4-(1H-pyrazol-4-yl)phenyl]-1,2,4-triazin-3-yl}octahydropyrrolo[1,2-a]pyrazin-7-ol] | 876
Cc1cn2cc(-c3cnc(-c4cnc(N5CCN(C)CC5)nn4)c(O)c3)cc(F)c2n1 [Cpd 122, 5-(8-fluoro-2-methylimidazo[1,2-a]pyridin-6-yl)-2-[3-(4-methylpiperazin-1-yl)-1,2,4-triazin-6-yl]pyridin-3-ol] | 41.2
Cn1nnc2cnc(-c3ccc(-c4cnc(N5CCN[C@@H](C6CC6)C5)nn4)c(O)c3)cc21 [Cpd 174, 2-{3-[(3S)-3-cyclopropylpiperazin-1-yl]-1,2,4-triazin-6-yl}-5-(1-methyl-1H-[1,2,3]triazolo[4,5-c]pyridin-6-yl)phenol] | 607
C[C@@H]1CN(c2ncc(-c3ccc(-c4cnc5nn(C)nc5c4)cc3O)nn2)C[C@H](C)N1 [Cpd 197, 2-{3-[(3R,5S)-3,5-dimethylpiperazin-1-yl]-1,2,4-triazin-6-yl}-5-(2-methyl-2H-[1,2,3]triazolo[4,5-b]pyridin-6-yl)phenol] | 11.6
C[C@@H]1CN(c2ncc(-c3ccc(-c4cn[nH]c4F)cc3O)nn2)C[C@H](C2CC2)N1 [Cpd 221, 2-{3-[(3S,5R)-3-cyclopropyl-5-methylpiperazin-1-yl]-1,2,4-triazin-6-yl]-5-(5-fluoro-1H-pyrazol-4-yl)phenol] | 4.4
C=CC1CN(c2ncc(-c3ccc(-c4cn[nH]c4)cc3O)nn2)CCN1 (centres unmarked) [Cpd 38, 2-[3-(3-ethenylpiperazin-1-yl)-1,2,4-triazin-6-yl]-5-(1H-pyrazol-4-yl)phenol] | 56.2
CCN1CCN(c2ncc(-c3ccc(-c4cc(F)c5nc(C)cn5c4)cc3O)nn2)CC1 [Cpd 77, 2-[3-(4-ethylpiperazin-1-yl)-1,2,4-triazin-6-yl]-5-(8-fluoro-2-methylimidazo[1,2-a]pyridin-6-yl)phenol] | 4.9
Cn1cc(-c2ccc(-c3cnc(N4CCN[C@@H](C(C)(C)C)C4)nn3)c(O)c2)cn1 [Cpd 21, 2-{3-[(3S)-3-tert-butylpiperazin-1-yl]-1,2,4-triazin-6-yl]-5-(1-methyl-1H-pyrazol-4-yl)phenol] | 20.8
Cc1cn2nc(-c3ccc(-c4cnc(N5CCN(C)CC5)nn4)c(O)c3)ccc2n1 [Cpd 82, 5-(2-methylimidazo[1,2-b]pyridazin-6-yl)-2-[3-(4-methylpiperazin-1-yl)-1,2,4-triazin-6-yl]phenol] | 5.5
CC(C)[C@H]1CN(c2ncc(-c3ccc(-c4cn[nH]c4F)cc3O)nn2)C[C@@H](C)N1 [Cpd 222, 5-(5-fluoro-1H-pyrazol-4-yl)-2-{3-[(3R,5S)-3-methyl-5-(propan-2-yl)piperazin-1-yl]-1,2,4-triazin-6-yl]phenol] | 9.4
Oc1cc(-c2c[nH]nc2F)ccc1-c1cnc(N2CCNC3(CC3)C2)nn1 [Cpd 57, 2-[3-(4,7-diazaspiro[2.5]octan-7-yl)-1,2,4-triazin-6-yl]-5-(3-fluoro-1H-pyrazol-4-yl)phenol] | 668
CC(C)[C@H]1CN(c2ncc(-c3ccc(-n4nccn4)cc3O)nn2)CCN1 [Cpd 154, 2-{3-[(3S)-3-(propan-2-yl)piperazin-1-yl]-1,2,4-triazin-6-yl}-5-(2H-1,2,3-triazol-2-yl)phenol] | 18.7
CC1CN(c2ncc(-c3ccc(-c4cc(F)c5nn(C)cc5c4)cc3O)nn2)CCN1 (centres unmarked) [Cpd 67, 5-(7-fluoro-2-methyl-2H-indazol-5-yl)-2-[3-(3-methylpiperazin-1-yl)-1,2,4-triazin-6-yl]phenol] | 2.1
Oc1cc(-c2cn[nH]c2)ccc1-c1cnc(N2CC3CCC(C2)N3)nn1 [Cpd 135, 2-[3-(3,8-diazabicyclo[3.2.1]octan-3-yl)-1,2,4-triazin-6-yl]-5-(1H-pyrazol-4-yl)phenol] | 185
C[C@@H]1CN(c2ncc(-c3ccc(-c4cnc5nn(C)cc5c4)cc3O)nn2)C[C@H](C)N1 [Cpd 97, 2-{3-[(3R,5S)-3,5-dimethylpiperazin-1-yl]-1,2,4-triazin-6-yl}-5-(2-methyl-2H-pyrazolo[3,4-b]pyridin-5-yl)phenol] | 9.8
CC(C)[C@H]1CN(c2ncc(-c3c(O)cc(-c4cn[nH]c4F)cc3F)nn2)CCN1 [Cpd 283, 3-fluoro-5-(5-fluoro-1H-pyrazol-4-yl)-2-{3-[(3S)-3-(propan-2-yl)piperazin-1-yl]-1,2,4-triazin-6-yl}phenol] | 7.3
Cn1cc2cc(-c3ccc(-c4cnc(N5CCN6CCC[C@H]6C5)nn4)c(O)c3)cc(F)c2n1 [Cpd 99, 5-(7-fluoro-2-methyl-2H-indazol-5-yl)-2-{3-[(8aS)-hexahydropyrrolo[1,2-a]pyrazin-2(1H)-yl]-1,2,4-triazin-6-yl]phenol] | 10.5
C[C@@H]1CN(c2ncc(-c3ccc(-c4cn[nH]c4)cc3O)nn2)CCN1 [Cpd 166, 2-{3-[(3R)-3-methylpiperazin-1-yl]-1,2,4-triazin-6-yl}-5-(1H-pyrazol-4-yl)phenol] | 192
Cc1ccc2c(ccn2-c2ccc(-c3cnc(N4CCN[C@@H](C(C)C)C4)nn3)c(O)c2)n1 [Cpd 159, 5-(5-methyl-1H-pyrrolo[3,2-b]pyridin-1-yl)-2-{3-[(3S)-3-(propan-2-yl)piperazin-1-yl]-1,2,4-triazin-6-yl}phenol] | 62.2
Oc1cc(-c2ccncn2)ccc1-c1cnc(N2CCN[C@@H](C3CC3)C2)nn1 [Cpd 192, 2-{3-[(3S)-3-cyclopropylpiperazin-1-yl]-1,2,4-triazin-6-yl}-5-(pyrimidin-4-yl)phenol] | 34.2
Cc1cc(-c2ccc(-c3cnc(N4CCNC(C(C)C)C4)nn3)c(O)c2)ccn1 (centres unmarked) [Cpd 44, 5-(2-methylpyridin-4-yl)-2-{3-[3-(propan-2-yl)piperazin-1-yl]-1,2,4-triazin-6-yl}phenol] | 138
